Source: US9211310B2, “Use of a Chinese medicine composition in preparing medicaments for treating secondary prevention of myocardial infarction” (TASLY PHARMACEUTICAL GROUP CO., LTD, priority 2010, dated 2015)

Test system: patients after acute myocardial infarction
Test: Angina pectoris score, total and single (frequency/attack times, duration, pain degree, dose of nitroglycerin), same clinical trial
Assay type: in vivo, human
Parameters: total angina pectoris score, Md / total angina pectoris score, Mean: scale not given here
Settings: for patients with change of dose of nitroglycerin score −6 (%) / distribution of total angina pectoris score: Medium, number of patients / distribution of total angina pectoris score: Medium, percentage of patients / distribution of total angina pectoris score: Mild, number of patients / distribution of total angina pectoris score: Mild, percentage of patients / distribution of total angina pectoris score: Severe, number of patients / distribution of total angina pectoris score: Severe, percentage of patients / patients with dose of nitroglycerin score 0 (%) / patients with dose of nitroglycerin score 1 (%) / patients with dose of nitroglycerin score 2 (%) / patients with dose of nitroglycerin score 4 (%) / patients with dose of nitroglycerin score 6 (%) / total angina pectoris score, Md / total angina pectoris score, Mean / change of total angina pectoris score, Md / change of total angina pectoris score, Mean / patients with change of dose of nitroglycerin score 0 (%) / patients with change of dose of nitroglycerin score 1 (%) / patients with change of dose of nitroglycerin score 2 (%) / patients with change of dose of nitroglycerin score 4 (%) / patients with change of dose of nitroglycerin score 6 (%) / patients with change of dose of nitroglycerin score −1 (%) / patients with change of dose of nitroglycerin score −2 (%) / patients with change of dose of nitroglycerin score −3 (%) / patients with change of dose of nitroglycerin score −4 (%) / patients with change of dose of nitroglycerin score −5 (%): PP; for attack times score, patients (%): month after treatment
Excerpt: In order to better understand the present invention, a multi-center, randomized, double-blind, double-dummy and positive drug controlled trial had been conducted. 3508 patients who were in accordance with the diagnostic standards of AMI for 28 days to 2 years and differentiated as Qi deficiency and blood stagnation syndrome by TCM were studied. 0.5 g Chinese medicine composition prepared by the method of EXAMPLE 1 (Coded as QSYQ) was administrated half an hour after meal, 3 times per day. Aspirine was used as a positive drug. The patients were treated for 1 year and observed for 6 months.
They included the overall survival time, angina pectoris score, TCM symptom score and life quality score, where angina pectoris score, TCM symptom score and life quality score were evaluated at randomization, in 1st, 3rd, 6th, 9th, 12th month after treatment and 18th month after follow-up.
(§1) Total angina pectoris score was described on every observation period and the change of observation in comparison with baseline. T-test or Wilcoxon rank sum test were used for inter-group comparison. Grade of total score was evaluated on every observation and Wilcoxon rank sum test was used for inter-group comparison. T-test and Pairing signed rank sum test were used for analyzing the change of total score on every observation between groups in comparison with the baseline.
(§2) Single angina pectoris score was depicted on every observation time-point and the change of observation in comparison with baseline. Wilcoxon rank sum test was used for inter-group comparison. Pairing signed rank sum test was used for analyzing the change of total score on every observation between groups in comparison with the baseline.
as §1, with “comparison with the baseline. T-test” for “comparison with baseline. T-test”
as §2, with “described” for “depicted”

[1] = 6 months after treatment-baseline
[2] = 9 months after treatment-baseline
[3] = 12 months after treatment-baseline

CC(=O)Oc1ccccc1C(=O)O [Control group, aspirine]
patients with change of dose of nitroglycerin score −6 (%) (3 months after treatment-baseline): (0.68%)
distribution of total angina pectoris score: Medium, number of patients (6 months after treatment): 278
distribution of total angina pectoris score: Medium, percentage of patients (6 months after treatment): (19.08%)
distribution of total angina pectoris score: Mild, number of patients (6 months after treatment): 1172
distribution of total angina pectoris score: Mild, percentage of patients (6 months after treatment): (80.44%)
distribution of total angina pectoris score: Severe, number of patients (6 months after treatment): 7
distribution of total angina pectoris score: Severe, percentage of patients (6 months after treatment): (0.48%)
patients with dose of nitroglycerin score 0 (%) (6 months after treatment): (67.13%)
patients with dose of nitroglycerin score 1 (%) (6 months after treatment): (1.03%)
patients with dose of nitroglycerin score 2 (%) (6 months after treatment): (27.85%)
patients with dose of nitroglycerin score 4 (%) (6 months after treatment): (2.75%)
patients with dose of nitroglycerin score 6 (%) (6 months after treatment): (1.24%)
total angina pectoris score, Md (6 months after treatment): 5.00
total angina pectoris score, Mean (6 months after treatment): 4.54
change of total angina pectoris score, Md [1]: −1.00
change of total angina pectoris score, Mean [1]: −2.58
patients with change of dose of nitroglycerin score 0 (%) [1]: (69.47%)
patients with change of dose of nitroglycerin score 1 (%) [1]: (0.48%)
patients with change of dose of nitroglycerin score 2 (%) [1]: (4.14%)
patients with change of dose of nitroglycerin score 4 (%) [1]: (0.28%)
patients with change of dose of nitroglycerin score 6 (%) [1]: (0.28%)
patients with change of dose of nitroglycerin score −1 (%) [1]: (0.28%)
patients with change of dose of nitroglycerin score −2 (%) [1]: (19.43%)
patients with change of dose of nitroglycerin score −3 (%) [1]: (0.00%)
patients with change of dose of nitroglycerin score −4 (%) [1]: (4.41%)
patients with change of dose of nitroglycerin score −5 (%) [1]: (0.21%)
patients with change of dose of nitroglycerin score −6 (%) [1]: (1.03%)
distribution of total angina pectoris score: Medium, number of patients (9 months after treatment): 233
distribution of total angina pectoris score: Medium, percentage of patients (9 months after treatment): (16.15%)
distribution of total angina pectoris score: Mild, number of patients (9 months after treatment): 1207
distribution of total angina pectoris score: Mild, percentage of patients (9 months after treatment): (83.65%)
distribution of total angina pectoris score: Severe, number of patients (9 months after treatment): 3
distribution of total angina pectoris score: Severe, percentage of patients (9 months after treatment): (0.21%)
patients with dose of nitroglycerin score 0 (%) (9 months after treatment): (68.96%)
patients with dose of nitroglycerin score 1 (%) (9 months after treatment): (1.25%)
patients with dose of nitroglycerin score 2 (%) (9 months after treatment): (27.43%)
patients with dose of nitroglycerin score 4 (%) (9 months after treatment): (1.39%)
patients with dose of nitroglycerin score 6 (%) (9 months after treatment): (0.97%)
total angina pectoris score, Md (9 months after treatment): 5.00
total angina pectoris score, Mean (9 months after treatment): 4.10
change of total angina pectoris score, Md [2]: −2.00
change of total angina pectoris score, Mean [2]: −3.02
patients with change of dose of nitroglycerin score 0 (%) [2]: (66.50%)
patients with change of dose of nitroglycerin score 1 (%) [2]: (0.42%)
patients with change of dose of nitroglycerin score 2 (%) [2]: (4.18%)
patients with change of dose of nitroglycerin score 4 (%) [2]: (0.28%)
patients with change of dose of nitroglycerin score 6 (%) [2]: (0.28%)
patients with change of dose of nitroglycerin score −1 (%) [2]: (0.56%)
patients with change of dose of nitroglycerin score −2 (%) [2]: (21.38%)
patients with change of dose of nitroglycerin score −3 (%) [2]: (0.14%)
patients with change of dose of nitroglycerin score −4 (%) [2]: (4.67%)
patients with change of dose of nitroglycerin score −5 (%) [2]: (0.21%)
patients with change of dose of nitroglycerin score −6 (%) [2]: (1.39%)
distribution of total angina pectoris score: Medium, number of patients (12 months after treatment): 171
distribution of total angina pectoris score: Medium, percentage of patients (12 months after treatment): (11.94%)
distribution of total angina pectoris score: Mild, number of patients (12 months after treatment): 1259
distribution of total angina pectoris score: Mild, percentage of patients (12 months after treatment): (87.92%)
distribution of total angina pectoris score: Severe, number of patients (12 months after treatment): 2
distribution of total angina pectoris score: Severe, percentage of patients (12 months after treatment): (0.14%)
patients with dose of nitroglycerin score 0 (%) (12 months after treatment): (74.81%)
patients with dose of nitroglycerin score 1 (%) (12 months after treatment): (1.33%)
patients with dose of nitroglycerin score 2 (%) (12 months after treatment): (22.18%)
patients with dose of nitroglycerin score 4 (%) (12 months after treatment): (0.91%)
patients with dose of nitroglycerin score 6 (%) (12 months after treatment): (0.77%)
total angina pectoris score, Md (12 months after treatment): 0.00
total angina pectoris score, Mean (12 months after treatment): 3.38
change of total angina pectoris score, Md [3]: −3.00
change of total angina pectoris score, Mean [3]: −3.71
patients with change of dose of nitroglycerin score 0 (%) [3]: (64.63%)
patients with change of dose of nitroglycerin score 1 (%) [3]: (0.63%)
patients with change of dose of nitroglycerin score 2 (%) [3]: (2.88%)
patients with change of dose of nitroglycerin score 4 (%) [3]: (0.07%)
patients with change of dose of nitroglycerin score 6 (%) [3]: (0.28%)
patients with change of dose of nitroglycerin score −1 (%) [3]: (0.63%)
patients with change of dose of nitroglycerin score −2 (%) [3]: (23.37%)
patients with change of dose of nitroglycerin score −3 (%) [3]: (0.07%)
patients with change of dose of nitroglycerin score −4 (%) [3]: (5.47%)
patients with change of dose of nitroglycerin score −5 (%) [3]: (0.07%)
patients with change of dose of nitroglycerin score −6 (%) [3]: (1.89%)
distribution of total angina pectoris score: Medium, number of patients (Baseline): 539
distribution of total angina pectoris score: Medium, percentage of patients (Baseline): (36.01%)
distribution of total angina pectoris score: Mild, number of patients (Baseline): 917
distribution of total angina pectoris score: Mild, percentage of patients (Baseline): (61.26%)
distribution of total angina pectoris score: Severe, number of patients (Baseline): 41
distribution of total angina pectoris score: Severe, percentage of patients (Baseline): (2.74%)
total angina pectoris score, Md (Baseline): 8.00
total angina pectoris score, Mean (Baseline): 7.20
distribution of total angina pectoris score: Medium, number of patients (Follow-up): 192
distribution of total angina pectoris score: Medium, percentage of patients (Follow-up): (13.64%)
distribution of total angina pectoris score: Mild, number of patients (Follow-up): 1215
distribution of total angina pectoris score: Mild, percentage of patients (Follow-up): (86.29%)
distribution of total angina pectoris score: Severe, number of patients (Follow-up): 1
distribution of total angina pectoris score: Severe, percentage of patients (Follow-up): (0.07%)
patients with dose of nitroglycerin score 0 (%) (Follow-up): (74.31%)
patients with dose of nitroglycerin score 1 (%) (Follow-up): (0.93%)
patients with dose of nitroglycerin score 2 (%) (Follow-up): (23.13%)
patients with dose of nitroglycerin score 4 (%) (Follow-up): (1.00%)
patients with dose of nitroglycerin score 6 (%) (Follow-up): (0.64%)
total angina pectoris score, Md (Follow-up): 0.00
total angina pectoris score, Mean (Follow-up): 3.60
change of total angina pectoris score, Md (Follow-up-baseline): −2.00
change of total angina pectoris score, Mean (Follow-up-baseline): −3.51
patients with change of dose of nitroglycerin score 0 (%) (Follow-up-baseline): (64.17%)
patients with change of dose of nitroglycerin score 1 (%) (Follow-up-baseline): (0.29%)
patients with change of dose of nitroglycerin score 2 (%) (Follow-up-baseline): (4.00%)
patients with change of dose of nitroglycerin score 4 (%) (Follow-up-baseline): (0.29%)
patients with change of dose of nitroglycerin score 6 (%) (Follow-up-baseline): (0.21%)
patients with change of dose of nitroglycerin score −1 (%) (Follow-up-baseline): (0.43%)
patients with change of dose of nitroglycerin score −2 (%) (Follow-up-baseline): (22.06%)
patients with change of dose of nitroglycerin score −3 (%) (Follow-up-baseline): (0.14%)
patients with change of dose of nitroglycerin score −4 (%) (Follow-up-baseline): (6.42%)
patients with change of dose of nitroglycerin score −5 (%) (Follow-up-baseline): (0.14%)
patients with change of dose of nitroglycerin score −6 (%) (Follow-up-baseline): (1.86%)
attack times score, patients (%) (score 0, FAS): (36.58%)
attack times score, patients (%) (score 0, PP): (36.33%)
attack times score, patients (%) (score 1, FAS): (10.72%)
attack times score, patients (%) (score 1, PP): (11.08%)
attack times score, patients (%) (score 2, FAS): (46.56%)
attack times score, patients (%) (score 2, PP): (46.88%)
attack times score, patients (%) (score 4, FAS): (6.02%)
attack times score, patients (%) (score 4, PP): (5.57%)
attack times score, patients (%) (score 6, FAS): (0.11%)
attack times score, patients (%) (score 6, PP): (0.13%)
